Source: ChEMBL document CHEMBL1141818, “Annonaceous acetogenins: recent progress” (J Nat Prod, 1999)
In brackets after ≈: the same amount, converted by molar mass.

Assays:
KB = test: Cytotoxicity against human KB cells; type: functional, cell-based; conditions: for IC50: Homo sapiens, KB
A498 = test: Cytotoxicity against human A-498 cells; type: functional; conditions: Homo sapiens, A498; read-out: ED50 (the source's name)
PC-3 = test: Cytotoxicity against human PC-3 cells; type: functional; conditions: for EC50: Homo sapiens, PC-3, read-out: ED50 (the source's name)
HT-29 = test: Cytotoxicity against human HT-29 cells; type: functional; conditions: Homo sapiens, HT-29; read-out: ED50 (the source's name)
MCF7 = test: Cytotoxicity against human MCF7 cells; type: functional; conditions: for EC50: Homo sapiens, MCF7, read-out: ED50 (the source's name)
MIA PaCa-2 = test: Cytotoxicity against human MIA PaCa2 cells; type: functional; conditions: for EC50: Homo sapiens, MIA PaCa-2, read-out: ED50 (the source's name)
Artemia = test: (§1) Toxicity in brine shrimp; type: organism-based; conditions: in vivo
A549 = test: Cytotoxicity against human A549 cells; type: functional; conditions: for EC50: Homo sapiens, A549, read-out: ED50 (the source's name)
Blattella germanica [1] = test: Ratio of LT50 for Blattella germanica Muncie fifth instars to LT50 for Blattella germanica Jwax fifth instars; type: functional
Blattella germanica [2] = test: Ratio of LT50 for Blattella germanica Muncie second instars to LT50 for Blattella germanica Jwax second instars; type: functional
HCT-8 = test: Cytotoxicity against human HCT8 cells; type: functional, cell-based
[3] = as §1; type: organism-based; conditions: artemia, in vivo

| Compound | EC50 (A498) | EC50 (PC-3) | EC50 (HT-29) | EC50 (MCF7) | EC50 (A549) | EC50 (MIA PaCa-2) | LC50 [3] | other results |
| --- | --- | --- | --- | --- | --- | --- | --- | --- |
| CCCCCC(O)CCCC[C@H](O)[C@@H]1CC[C@@H]([C@@H]2CC[C@H]([C@H](O)CCCCCCCCCCCCC3=C[C@H](C)OC3=O)O2)O1 (some centres undefined) [CAROLIN B] | – | – | – | – | – | – | – | ED50 (KB): 5 ×10⁻⁶ ug/ml |
| CCCCCCCCCCCC[C@H](O)[C@H]1CC[C@H]([C@H](O)CCCCCC(O)CCCCCCC2CC(CC(C)=O)C(=O)O2)O1 (mixture of isomers) [(2,4-CIS/TRANS)-SQUAMOXINE B] | 0.004 µg/mL | 0.05 µg/mL | 0.0027 µg/mL | 0.0014 µg/mL | 0.0038 µg/mL | – | – | ED50 (MIA PaCa-2): 8.3 ×10⁻⁴ ug/ml; LC50 (Artemia): 4.6 ×10⁻² ug/ml |
| CCCCCCCCCCCCCC[C@H](O)[C@@H](O)CC[C@H](O)[C@@H]1CC[C@@H](CCCCC[C@@H](O)CC2=C[C@@](C)(O)OC2O)O1 (some centres undefined) [DONNAIENIN B] | – | – | – | – | – | – | – | IC50 (KB): 10 µg/mL (≈ 16.3 µM) |
| CCCCCCCCCC[C@@H](O)[C@H]1CC[C@H]([C@H]2CC[C@H]([C@H](O)CCCCCCCC[C@@H](O)CCCC3=C[C@H](C)OC3=O)O2)O1 [BULLACIN] | > 1 µg/mL | > 1 µg/mL | 0.0045 µg/mL (≈ 0.00722 µM) | – | – | 0.41 µg/mL (≈ 0.658 µM) | – | ED50 (MCF7): 2.5 ×10⁻⁷ ug/ml; LC50 (Artemia): 1.9 ×10⁻² ug/ml; ED50 (A549): 9 ×10⁻⁷ ug/ml |
| CCCCCCCCCC[C@@H](O)[C@@H]1CC[C@H]([C@H](O)CC[C@H](O)[C@@H]2CC[C@@H](CCCCCCC[C@@H](O)CC3=C[C@H](C)OC3=O)O2)O1 [SYLVATICIN] | – | – | – | – | – | – | – | Ratio (Blattella germanica [1]): 3.9; Ratio (Blattella germanica [2]): 1.7 |
| CCCCCCCCCC[C@H](O)[C@H]1CC[C@H]([C@H]2CC[C@H]([C@H](O)CCCCCCCCCC[C@@H]3CC(CC(C)=O)C(=O)O3)O2)O1 (mixture of isomers) [BULLATACINONE] | 1.8 µg/mL | 2.6 µg/mL | 1.7 µg/mL | 1.8 µg/mL | 1.9 µg/mL | 1.1 µg/mL | – | LC50 (Artemia): 7.4 ×10⁻² ug/ml |
| CCCCC[C@H](O)[C@H](O)CCC[C@H](O)[C@H]1CC[C@H]([C@H]2CC[C@H]([C@H](O)CCCCCCCCCCCCC3=C[C@H](C)OC3=O)O2)O1 (stereo in doubt; 97) [PURPUREDIOLIN] | 1.4 µg/mL (≈ 2.19 µM) | – | – | 0.92 µg/mL (≈ 1.44 µM) | – | – | – | ED50 (PC-3): 3.5 ×10⁻¹ ug/ml; ED50 (MIA PaCa-2): 1.4 µg/mL (≈ 2.19 µM); LC50 (Artemia): 7 ×10⁻² ug/ml; ED50 (A549): 4.4 ×10⁻¹ ug/ml |
| CCCCCCCCCCCCCC[C@@H](O)[C@H](O)CC[C@H](O)[C@@H]1CC[C@@H](CCCCC[C@@H](O)CC2=C[C@H](C)OC2=O)O1 [GIGANTETROCIN A] | – | – | – | – | – | – | – | Ratio (Blattella germanica [1]): 1.5; Ratio (Blattella germanica [2]): 0.9 |
| CCCCCCCCCCCC[C@@H](O)[C@H]1CC[C@H]([C@H](O)CCCCCCCCCC[C@@H](O)CC2=C[C@@](C)(O)OC2=O)O1 [DONNAIENIN A] | – | – | – | – | – | – | – | IC50 (KB): < 1 µg/mL; IC50 (HCT-8): < 10 µg/mL |
| CCCCCCC(O)CCC[C@H](O)[C@@H]1CC[C@@H]([C@@H]2CC[C@H]([C@H](O)CCCCCCCCCCCCC3=C[C@H](C)OC3=O)O2)O1 (some centres undefined) [CAROLIN A] | – | – | – | – | – | – | – | ED50 (KB): 1 ×10⁻⁷ ug/ml |
| CCCCCCCCCCCC[C@H](O)[C@@H](O)CC[C@H](O)[C@@H]1CC[C@@H](C[C@H](O)CCCCC[C@@H](O)CC2=C[C@H](C)OC2=O)O1 [ANNOPENTOCIN B] | 0.38 µg/mL (≈ 0.62 µM) | 0.21 µg/mL (≈ 0.343 µM) | 1.6 µg/mL (≈ 2.61 µM) | 3.6 µg/mL (≈ 5.87 µM) | 0.027 µg/mL (≈ 0.0441 µM) | 0.16 µg/mL (≈ 0.261 µM) | 0.11 µg/mL (≈ 0.179 µM) | – |
| CCCCCCCCCC[C@@H](O)[C@H]1CC[C@H]([C@H]2CC[C@H]([C@H](O)CCCCCC(=O)CCCC[C@@H]3CC(CC(C)=O)C(=O)O3)O2)O1 (mixture of isomers) | 0.46 µg/mL | 1.1 µg/mL | 0.004 µg/mL | 0.26 µg/mL | 0.0057 µg/mL | 1.2 µg/mL | 0.67 µg/mL | – |
| CCCCCCCCCCCC[C@@H](O)[C@@H](O)CC[C@H](O)[C@@H]1CC[C@@H](CCC[C@@H](O)[C@H](O)CC[C@@H](O)CC2=C[C@H](C)OC2=O)O1 [MURIHEXOCIN] | 2.5 µg/mL (≈ 3.98 µM) | 0.86 µg/mL (≈ 1.37 µM) | 1.3 µg/mL (≈ 2.07 µM) | 3.8 µg/mL (≈ 6.04 µM) | 1.1 µg/mL (≈ 1.75 µM) | 0.49 µg/mL (≈ 0.779 µM) | 10 µg/mL (≈ 15.9 µM) | – |
| CC1(C)C(C=C(Cl)Cl)C1C(=O)OC(C#N)c1cccc(Oc2ccccc2)c1 (stereo not drawn) [ALPHA-CYPERMETHRIN] | – | – | – | – | – | – | – | Ratio (Blattella germanica [2]): 2 |
| CCCCCCCCCC[C@@H](O)[C@H]1CC[C@H]([C@H]2CC[C@H]([C@H](O)CCCCC[C@@H](O)CCCCC3CC(CC(C)=O)C(=O)O3)O2)O1 (some centres undefined) | 0.036 µg/mL (≈ 0.0563 µM) | 0.16 µg/mL (≈ 0.25 µM) | 1.4 µg/mL (≈ 2.19 µM) | 0.0012 µg/mL (≈ 0.00188 µM) | 0.077 µg/mL (≈ 0.121 µM) | – | 0.35 µg/mL (≈ 0.548 µM) | ED50 (MIA PaCa-2): 1.7 ×10⁻⁴ ug/ml |
| CCCCCCCCCC[C@@H](O)[C@H]1CC[C@H]([C@H](O)CC[C@H](O)[C@@H]2CC[C@@H](CCCCC[C@@H]3CC(CC(C)=O)C(=O)O3)O2)O1 (some centres undefined) | 0.21 µg/mL (≈ 0.344 µM) | 0.0011 µg/mL (≈ 0.0018 µM) | > 1 µg/mL | > 1 µg/mL | 0.21 µg/mL (≈ 0.344 µM) | > 1 µg/mL | 3.3 µg/mL (≈ 5.4 µM) | – |
| CCCCCCCCCCCC[C@H](O)[C@H](O)CC[C@H](O)[C@@H]1CC[C@@H](C[C@H](O)CCCCC[C@@H](O)CC2=C[C@H](C)OC2=O)O1 [ANNOPENTOCIN C] | 0.26 µg/mL (≈ 0.424 µM) | 0.23 µg/mL (≈ 0.375 µM) | 1.2 µg/mL (≈ 1.96 µM) | 0.3 µg/mL (≈ 0.489 µM) | 0.021 µg/mL (≈ 0.0343 µM) | 0.43 µg/mL (≈ 0.702 µM) | 14 µg/mL (≈ 22.8 µM) | – |
